Reference: patent US8431602B2, “Beta-amino acid derivatives for treatment of diabetes” (Merck Patent Gesellschaft mit beschrankter Haftung, priority 2008, dated 2013)
pEC50: −log10 of the molar value.

target: T1, glucokinase (GK), human enzyme (Homo sapiens, UniProt P35557); assay: Glucokinase Activation Assay (coupled enzyme assay with PK/LDH, NADH decline at 340 nm); type: biochemical; conditions: 2 mM glucose, half maximal effective concentration of activation
T1 sequence (P35557 1-465): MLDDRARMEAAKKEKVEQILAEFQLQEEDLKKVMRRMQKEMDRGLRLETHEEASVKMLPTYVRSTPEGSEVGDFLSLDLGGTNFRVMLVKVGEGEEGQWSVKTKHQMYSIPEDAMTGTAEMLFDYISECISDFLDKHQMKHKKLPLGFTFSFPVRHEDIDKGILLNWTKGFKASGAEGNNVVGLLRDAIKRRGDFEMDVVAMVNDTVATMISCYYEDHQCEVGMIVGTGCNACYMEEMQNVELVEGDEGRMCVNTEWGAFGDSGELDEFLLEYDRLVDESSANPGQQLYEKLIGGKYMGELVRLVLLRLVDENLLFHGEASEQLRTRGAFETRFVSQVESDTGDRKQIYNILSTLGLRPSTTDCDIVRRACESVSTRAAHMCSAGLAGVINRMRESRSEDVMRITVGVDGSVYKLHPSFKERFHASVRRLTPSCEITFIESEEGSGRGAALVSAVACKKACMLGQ
Description: Glucokinase Activation Screening Assay
GK activity (human or rat enzyme) is measured by a coupled enzyme assay using pyruvate kinase (PK) and lactate dehydrogenase (LDH) as coupling enzymes. GK activity is calculated from the decline in NADH monitored photometrically with a microtiter plate (MTP) reader at 340 nm.
For screening purposes, the GK assay is routinely run in a 384-MTP format, in a total volume of 33 μl/well. 10 μl of the ATP-regeneration solution (in HEPES-buffer*, pH 7.0, 6.73 U/ml pyruvate kinase, 6.8 U/ml lactate dehydrogenase) and 10 μl of the glucokinase-/glucose solution (15 μg/ml, 6.6 mM glucose in HEPES-buffer*, pH 7.0; the concentration of the glucose stock-solution was 660 mM in Millipore H2O) were mixed together with 3 μl of a 10% DMSO solution (in HEPES-buffer*, pH 7.0) containing […] the amounts of the compounds to achieve final compound concentrations in the range between 1 nM to 30 μM (sometimes 300 μM) in the assay solution (s. below). The solutions were mixed for 5 sec, and after a centrifugation at 243×g for 5 min, the solutions were preincubated for 25 min at room temperature. The reaction was started by the addition of 10 μl of the NADH-/ATP-solution (4.29 mM NADH, 4.95 mM ATP, in HEPES-buffer*). The MTP was shaken for 5 sec., and then, the absorbance at 340 nm was monitored continuously in a MTP-reader (TECAN Spectro fluor plus) for the next 27 min (with a MTP-cycling time of 199 sec.). The final concentrations of the various components were as follows: 49.5 mM Hepes, pH 7.0, 1.49 mM PEP, 1.3 mM NADH, 49.5 mM KCl, 4.96 mM MgCl2, 1.5 mM Mg-ATP, 1.98 mM DTT, 2.04 U/ml pyruvate kinase, 2.06 U/ml lactate-dehydrogenase, 0.91% DMSO, 0.15 μg/well glucokinase, and test compounds in the range between 1 nM and 300 μM, The change in the optical density (ΔOD340 nm) in the presence of the compound was expressed relative to the ΔOD340 nm, ctrl of the control incubation (in the presence of 2 mM glucose and 0.91% DMSO), taking into account the optical density of the blank sample (incubation in the absence of 2 mM glucose). For the determination of the half maximal effective concentration (EC50), the %-Ctrl-values were plotted in a semi-logarithmic graph against the cone. of the compound of interest. The data points were fitted to a sigmoid curve function (f(x)=((%-Ctrlmax−%-Ctrlmin)/(1−(EC50/x**^n(Hill)))+%-Ctrlmin)) by a non-linear regression analysis. • Hepes-buffer (50 mM Hepes, pH 7.0, 5 mM MgCl2, 50 mM KCl, 1.5 mM PEP, 0.1% BSA). DTT was added to the Hepes-buffer from a 200× stock solution (in Millipore H2O) freshly each day. The final concentration of DTT in the Hepes-buffer is 2 mM. Culture of Pancreatic INS-1 Cells

| pEC50 | SMILES |
| --- | --- |
| 5.00 to 6.00 | COc1cc(C(CC(=O)Nc2ccc(Cl)cn2)N2Cc3ccccc3C2=O)cc(OC)c1OC (stereo not drawn) [B2, N-(5-Chloro-pyridine-2-yl)-3-(1-oxo-1,3-dihydro-isoindole-2-yl)-3-(3,4,5-trimethoxy-phenyl)-propionamide] |
| < 5.00 | COc1cccc(C(CC(=O)Nc2ccc(Cl)cn2)N2Cc3ccccc3C2=O)c1OC (stereo not drawn) [C3, N-(5-Chloro-pyridine-5-yl)-3-(2,3-dimethoxy-phenyl)-3-(1-oxo-1,3-dihydro-isoindole-2-yl)-propionamide] |
| < 5.00 | CCOc1ccc(C(CC(=O)Nc2ccc(Cl)cn2)N2Cc3ccccc3C2=O)cc1OC (single isomer, unassigned; (-)) [C5, (−)-N-(5-Chloro-pyridine-2-yl)-3-(4-ethoxy-3-methoxy-phenyl)-3-(1-oxo-1,3-dihydro-isoindole-2-yl)-propionamide] |
| < 5.00 | COc1ccc(C(CC(=O)Nc2ccc(Cl)cn2)N2Cc3ccccc3C2=O)cc1OC (stereo not drawn) [B6, N-(5-Chloro-pyridine-2-yl)-3-(3,4-dimethoxy-phenyl)-3-(1-oxo-1,3-dihydro-isoindole-2-yl)-propionamide] |
| < 5.00 | COc1ccc(C(CC(=O)Nc2ccc(Br)cn2)N2Cc3ccccc3C2=O)cc1OC (stereo not drawn) [B5, N-(5-Bromo-pyridine-2-yl)-3-(3,4-dimethoxy-phenyl)-3-(1-oxo-1,3-dihydro-isoindole-2-yl)-propionamide] |
| 5.00 to 6.00 | COc1cc(C(CC(=O)Nc2ccc(C)cn2)N2Cc3ccccc3C2=O)cc(OC)c1OC (stereo not drawn) [B7, N-(5-Methyl-pyridine-2-yl)-3-(1-oxo-1,3-dihydro-isoindole-2-yl)-3-(3,4,5-trimethoxy-phenyl)-propionamide] |
| < 5.00 | CCOc1ccc(C(CC(=O)Nc2ccc(Cl)cn2)N2Cc3ccccc3C2=O)cc1OC (stereo not drawn) [C23, N-(5-Chloro-pyridine-2-yl)-3-(4-ethoxy-3-methoxy-phenyl)-3-(1-oxo-1,3-dihydro-isoindole-2-yl)-propionamide] |
| 5.00 to 6.00 | COc1cc(C(CC(=O)Nc2ccc(Cl)cn2)N2Cc3ccccc3C2=O)cc(OC)c1OC (single isomer, unassigned; (+)) [C1, (+)-N-(5-Chloro-pyridine-2-yl)-3-(1-oxo-1,3-dihydro-isoindole-2-yl)-3-(3,4,5-trimethoxy-phenyl)-propionamide] |
| < 5.00 | CCOc1ccc(C(CC(=O)Nc2ccc(Cl)cn2)N2Cc3ccccc3C2=O)cc1OC (single isomer, unassigned; (+)) [C4, (+)-N-(5-Chloro-pyridine-2-yl)-3-(4-ethoxy-3-methoxy-phenyl)-3-(1-oxo-1,3-dihydro-isoindole-2-yl)-propionamide] |
